From patent US8680054B2, “Suspension type topical formulations comprising cyclic depsipeptide” (Novartis AG, priority 2011, dated 2014)

Assays:
[1] = Solubility of the compound of formula (II); type: physicochemical
[2] = Stability of the compound of formula (II) in hydrophilic environment; type: physicochemical

CC[C@H](C)[C@@H]1NC(=O)[C@H](Cc2ccc(O)cc2)N(C)C(=O)[C@H]([C@@H](C)CC)N2C(=O)[C@H](CC[C@H]2O)NC(=O)[C@H](CC(C)C)NC(=O)[C@@H](NC(=O)[C@H](CCC(N)=O)NC(=O)C(C)C)[C@@H](C)OC1=O [compound of formula (II)]
solubility in lipophilic excipients ([1]; lipophilic excipients): low solubility | solubility in polar organic solvents ([1]; polar organic solvents): good solubility | solubility in water and aqueous buffers ([1]; water and aqueous buffers): moderate solubility | stability in the presence of water ([2]; presence of water): subject to hydrolysis | stability in a hydrophilic environment ([2]; water and polar organic solvents/co-solvents): tendency to degradeation
